Measurements taken from patent US10905691B2, “Use of triazolo(4,5-d)pyrimidine derivatives for prevention and treatment of bacterial infection” (Universite de Liege, priority 2016, dated 2021).

Experiments:
[1] = system: Escherichia coli (ATCC 8739); experiment: MIC determination with or without C12(ω7)Kβ12 (OAK); format: cell-based; settings: for MIC: Escherichia coli, ATCC8739, in presence of 5 μg/ml OAK; for inhibition of Escherichia coli growth: taken alone at a concentration of 10 μg/ml
Source text: (§1) Determination of Minimal Inhibitory Concentration (MIC) and Minimal Bactericidal Concentration (MBC) of Triafluocyl (purchased from Cayman Chemical, Item No. 15425) in presence of C12(ω7)Kβ12 (purchased from biomers.net, Germany) against Escherichia coli (ATCC 8739). The C12(ω7)Kβ12 was synthesized by solid-phase method as described by I. Radzishevsky in Antimicrobial Agents and Chemotherapy, May 2007 (1753-1759) (https://aac.asm.org/content/51/5/1753).
(§2) A single colony of Escherichia coli grown on a Luria-Bertani (LB) agar plate is resuspended and cultured in LB medium overnight (O/N) in aerobic conditions (37° C. with 220 rpm shaking in the New Brunswick Innova 4330 Shaker incubator). An aliquot of 100 μl such overnight Escherichia coli culture is diluted 1:50 in 5 ml Mueller-Hintom broth (MHB) and is incubated in aerobic conditions during 1 hour 30 minutes (OD=0.08-0.1) to reach the exponential phase of their growth curve. An inoculum of the exponentially growing Escherichia coli, corresponding to around 1×10^6 c.f.u./ml is then incubated in presence or absence of different concentrations of Triafluocyl in 2% DMSO with or without OAK for 24 hr in aerobic conditions (37° C. with 220 rpm shaking in the New Brunswick Innova 4330 Shaker incubator). Growth of Escherichia coli in each condition depicted in FIG. 13A is evaluated by reading the Optical Density of each culture at 600 nm (OD600) in a spectrophotometer (Victor-3, Perkin Elmer).
as §1, with “Fluometacyl (prepared according to WO 99/05143)” for “Triafluocyl (purchased from Cayman Chemical, Item No. 15425)”
as §2, with “An inoculum of the exponentially growing Escherichia coli, corresponding to around 1×10^6 c.f.u./ml is then incubated in presence or absence of different concentrations of Triafluocyl in 2% DMSO with or without OAK for 24 hr in aerobic conditions (37° C. with 220 rpm shaking in the New Brunswick Innova 4330 Shaker incubator).” left out, “14A” for “13A”

[2] = system: Glycopeptide intermediate-resistant (GISA) S. aureus Mu-50 (ATCC 700695); experiment: MBC and MDK99.9 determination (CFU counting); format: cell-based, Staphylococcus aureus; settings: for MBC: Staphylococcus aureus, ATCC700695, cut-off 99.9% reduction in CFU
Protocol: (§3) Further experiments were conducted using different strains of S. aureus, as clinically relevant Gram-positive bacterial strains: ATCC 25904, ATCC 6538, methilcillin-resistant S. aureus (MRSA) ATCC BAA-1556, Glycopeptide intermediate-resistant (GISA) S. aureus Mu-50 (ATCC 700695) in order to determine the Minimal Inhibitory Concentration (MIC) which is the minimal concentration required to prevent bacterial growth; the Minimal Bactericidal Concentration (MBC) which determines the lowest concentration at which an antimicrobial agent kill a particular microorganism and a Minimum Duration for killing 99.9% bacteria (MDK99.9) which is a tolerance metric according to the EUCAST.
(§4) MBC and MDK99.9 determination: A single colony selected from the different strains of S. aureus is resuspended and cultured in the appropriate medium (TSB, or BHI) overnight (O/N) in aerobic conditions (37° C. with 220 rpm shaking), next day a 1:100 inoculum in the appropriate medium was incubated in aerobic conditions for 2 h. The culture is then challenged with triafluocyl at MIC concentration or higher concentrations. Bacterial growth was measured after different time intervals by counting the colony-forming units after plating appropriate culture dilutions on BHI agar plates. […] And the real time needed is defined as the MDK99.9. MBC for Triafluocyl against S. aureus ATCC 25904, ATCC 6538, methilcillin-resistant S. aureus (MRSA) ATCC BAA-1556, Glycopeptide intermediate-resistant (GISA), and S. aureus Mu-50 (ATCC 700695) were 20 μg/ml for each of them. MDK99.9 for Triafluocyl against S. aureus ATCC 25904, ATCC 6538, methilcillin-resistant S. aureus (MRSA) ATCC BAA-1556, Glycopeptide intermediate-resistant (GISA), and S. aureus Mu-50 (ATCC 700695) were 10, 6, 2, and 14 hours, respectively.
(§5) For MBC determination a 1:100 inoculum of an O/N culture (prepared like before) was incubated in aerobic conditions for 2 h in bacteria-specific medium. The culture was then challenged with Fluometacyl at the MIC concentration or higher. Bacterial growth was measured after different time intervals by counting the colony-forming units (CFU) after plating appropriate culture dilutions on bacteria-specific medium agar plates.

[3] = system: methilcillin-resistant S. aureus (MRSA) ATCC BAA-1556; experiment: MBC and MDK99.9 determination (CFU counting); format: cell-based, Staphylococcus aureus; settings: for MBC: Staphylococcus aureus, cut-off 99.9% reduction in CFU
Protocol: as §3, §4, §5

S. aureus ATCC 25904 = experiment: MBC and MDK99.9 determination (CFU counting); format: cell-based, Staphylococcus aureus; settings: for MBC: Staphylococcus aureus, ATCC25904, cut-off 99.9% reduction in CFU
Protocol: as §3, §4, §5

Compound | MIC [1] | inhibition of Escherichia coli growth [1] | MDK 99.9 Time (h) needed to kill 99.9% of the started inoculum ([2]; S. aureus Mu50 GISA) | MBC ([2]; S. aureus Mu50 GISA) | MDK 99.9 Time (h) needed to kill 99.9% of the started inoculum [3] | MBC [3] | MDK 99.9 Time (h) needed to kill 99.9% of the started inoculum (S. aureus ATCC 25904) | MBC (S. aureus ATCC 25904) | MBC ([2]; S. aureus MU50 GISA)
CCCSc1nc(N[C@@H]2C[C@H]2c2ccc(F)c(F)c2)c2nnn([C@@H]3C[C@H](OCCO)[C@@H](O)[C@H]3O)c2n1 [Triafluocyl, (1S,2S,3R,5S)-3-[7-[(1R,2S)-2-(3,4-difluorophenyl)cyclopropylamino]-5-(propylthio)-3H-[1,2,3]-triazolo[4,5-d]pyrimidin-3-yl]-5-(2-hydroxyethoxy)-1,2-cyclopentanediol] | 5 µg/mL | unable to inhibit Escherichia coli growth | 14 h | 20 µg/mL | 2 h | 20 µg/mL | 10 h | 20 µg/mL | 
CCCSc1nc(N[C@@H]2C[C@H]2c2ccc(F)c(F)c2)c2nnn([C@@H]3C[C@H](O)[C@@H](O)[C@H]3O)c2n1 [Fluometacyl, (1S,2R,3S,4R)-4-[7-[[(1R,2S)-2-(3,4-Difluorophenyl)cyclopropyl]amino]-5-(propylthio)-3H-1,2,3-triazolo[4,5-d]pyrimidin-3-yl]-1,2,3-cyclopentanetriol] | 5 µg/mL | unable to inhibit E. coli growth |  |  |  | 38 µM |  | 38 µM | 38 µM
